Experimental data from US12344584B2, “KCNQ potentiators” (Eli Lilly and Company, priority 2019, dated 2025).
Like-named read-outs stand apart in the source and are kept apart here.

Test system: motor neurons derived from ALS patient iPSC line with pathogenic mutation in TARDBP
Test: Optopatch excitability assay in motor neurons derived from ALS patient iPSC line (TARDBP mutation)
Format: cell-based, human
Conditions: for EC50: Homo sapiens, iPSC, TARDBP line, blue LED 5.1 mW/cm^2, mean, read-out: EC50, inhibition of excitability (action potential frequency)
Text: Optopatch Excitability Assay for Example 1 in Motor Neurons Derived From ALS Patient iPSC Lines
Altered excitability of cortical neurons and lower motor neuron is an important factor in the pathophysiology of ALS (See, for example, K. Kanai, et. al., J Neurol Neurosurg Psychiatry, 83, 734-738 (2012); P. Menon, et. al., Eur Neurol., 24, 816-824 (2017)). All-optical electrophysiology (“Optopatch”) was used to evaluate excitability in cultured motor neurons derived from iPSC lines from two ALS patients with different pathogenic mutations.
Cell Culture: The two iPSC lines are derived from one patient with a pathogenic mutation in TARDBP and one patient with a pathogenic repeat expansion mutation in C9orf72, respectively. Motor neurons are generated from these lines by a 2D differentiation method adapted from the dual SMAD inhibition neuronal patterning protocol (See S. M. Chambers, et. al., Nat Biotechnol., 27, 275-280 (2009)) by inclusion of motor neuron morphogens. Differentiation is verified by visual inspection, karyotyping and staining for beta-III-tubulin and the nuclear motor neuron marker ISL1. Neurons are cultured on a monolayer of mouse glia in mTeSR (Stem Cell Technologies), supplemented with 10 ng/mL BDNF. Forty-eight hours prior to imaging, 100 nM trans-retinal was added to the medium.
Transduction with Optopatch vectors: At 15 days in vitro, cultured motor neurons are transduced with a lentiviral vector to drive the co-expression of the actuator CheRiff-mOrange2 and the voltage indicator QuasAr3-Citrine (for details see D. R. Hochbaum, et. al., Nat. Methods, 11, 825-833 (2014)). Forty-eight hours prior to imaging, 100 nM trans-retinal was added to the medium.
Solutions: Recordings are performed in Brainphys™ imaging buffer with 3 mM potassium. The gap junction blocker 2-aminoethoxydiphenyl borate (50 μM) is added to eliminate electrical coupling between cells, and NBQX (10 μM), gabazine (20 μM), and AP5 (25 μM) were used to block synaptic transmission.
Optopatch Recordings: Five days after transduction, Optopatch imaging is performed on a custom, ultra-widefield fluorescence microscope at RT. Motor neurons are illuminated with red laser excitation (200 W/cm^2; 635 nm) to monitor changes in QuasAr fluorescence and blue LED excitation (0-127 mW/cm^2, 470 nm) to depolarize the cell membrane with CheRiff. A custom blue light stimulus protocol is used consisting of: i) 2 sec of red illumination only to monitor spontaneous activity, ii) 5×500 msec steps of increasing blue light intensity and iii) 2×2 sec linearly increasing blue light ramps, each with a different maximum blue intensity. Optopatch data are recorded using a Hamamatsu ORCA-Flash 4.0 sCMOS camera with a 1 kHz frame rate. The field of view size is 4 mm×0.5 mm. Custom control software written in MATLAB is used to control illumination protocols and record all movies. To examine acute effects of Kv7.2/7.3 potentiators, neurons are incubated with test compound for 15 min prior to imaging.
Data Analysis: Image segmentation analysis is performed using temporal Principle Component Analysis and spatial-temporal Independent Component Analysis to isolate individual neurons. A spike-finding algorithm is used to find action potentials, and data are analyzed for compound effects on mean firing rate, adaptation, rheobase and action potential waveform shape by comparing to vehicle controls (for detail, see C. A. Werley, et. al., Curr. Protoc. Pharmacol., 78, 11.20.1-11.20.24. (2017)).
Subjected to the protocol described above, the primary effect of the Example 1 is on the action potential firing rate in response to low intensity blue light illumination.
Fitting a 4-parameter logistic equation to the data may be used to determine the potency (EC50) of the effect of Example 1 on action potential frequency. Results are shown in Table 1 for two separate differentiation efforts each for the lines derived from the patients carrying the TARDBP and C9orf72 mutations.

`CC(C)(C)[C@H](O)CNC(=O)NCc1ccnc(OCC(F)(F)F)c1` [Example 1, 1-[(2S)-2-hydroxy-3,3-dimethyl-butyl]-3-[[2-(2,2,2-trifluoroethoxy)-4-pyridyl]methyl]urea] was tested, and the EC50 (Diff 1) was 150 nM, the EC50 (Diff 2) was 150 nM and the “effect on action potential frequency” value (blue LED illumination intensity 5.1 mW/cm^2, text does not distinguish the two lines) was “decreased action potential frequency in a concentration-dependent manner”. For the same compound, the “observed effects compared with flupirtine” value (both patient lines, vs known Kv7.2/7.3 potentiator flupirtine) was “qualitatively similar but more potent”.
